Test results: patent publication US9532994B2, “Agents and methods for enhancing bone formation by oxysterols in combination with bone morphogenic proteins” (THE REGENTS OF THE UNIVERSITY OF CALIFORNIA, priority 2003, dated 2017)

Legend:
[1] = system: M2-10B4 mouse marrow stromal cell line; test: Matrix mineralization in M2 cells (von Kossa staining, 45Ca incorporation assay); assay type: cell-based; details: 0.5-10 μM, as many as 14 days, data not shown
Method: Cells: M2-10B4 mouse marrow stromal cell line obtained from American Type Culture Collection (ATCC, Rockville, Md., U.S.A.) was derived from bone marrow stromal cells of a (C57BL/6J×C3H/HeJ) F1 mouse, and support human and murine myelopoiesis in long-term cultures (as per ATCC) and have the ability to differentiate into osteoblastic and adipocytic cells. Unless specified, these cells were cultured in RPMI 1640 containing 10% heat-inactivated FBS, and supplemented with 1 mM sodium pyruvate, 100 U/ml penicillin, and 100 […] (all from Irvine Scientific).
(§1) Von Kossa and oil red O staining—Matrix mineralization in cell monolayers was detected by silver nitrate staining as previously described. Oil red O staining for detection of adipocytes was performed as previously described.
^45Ca incorporation assay—Matrix mineralization in cell monolayers was quantified using the ^45Ca incorporation assay as previously described.
M2 cells at confluence were treated in osteogenic medium with control vehicle or 5 μM oxysterols, alone or in combination as indicated. After 14 days, mineralization was identified by a von Kossa staining, which appears black. FIG. 3C is a depiction of von Kossa staining of M2 cells exposed to various conditions.
M2 cells were treated with control vehicle (C) or a combination of 22R and 20S oxysterols at increasing concentrations. After 14 days, matrix mineralization in cultures was quantified using a ^45Ca incorporation assay. […] FIG. 3D is a bar graph depicting the effect of a combination of oxysterols at various doses on calcium incorporation in M2 cells.
Next, a combination of 22R and 20S oxysterols (RS, 2.5 μM each) were added in the presence or absence of SC as indicated. After 3 days, ALP activity was measured as described earlier. […] (B) M2 cells were treated as described in (A) and after 10 days matrix mineralization in cultures was quantified by a ^45Ca incorporation assay as described earlier. Results from a representative of three experiments are shown, reported as the mean±SD of quadruplicate determinations, normalized to protein concentration. (C) M2 cells were pretreated with 20 μM SC for 4 hours, followed by the addition of RS in the presence or absence of SC as described above. After 8 days, total RNA was isolated and analyzed for osteocalcin (Osc) and 18S rRNA expression by Northern blotting as previously described. Data from densitometric analysis of the Northern blot is shown in (D) as the average of duplicate samples, normalized to 18S rRNA. (E) M2 cells at confluence were pretreated for 2 hours with control vehicle (C), or PLA2 inhibitors ACA (25 μM) and MCOCF3 (MC, 20 μM), in osteogenic medium. Next, a combination of 22R and 20S oxysterols (RS, 2.5 μM) was added in the presence or absence of the inhibitors as indicated. After 3 days, ALP activity was measured as previously described. Data from a representative of three experiments are shown, reported as the mean±SD of quadruplicate determinations, normalized to protein concentration (p<0.01 for RS vs. RS+ACA and RS+MC). (F) M2 cells were treated as described in (E). After 10 days, matrix mineralization in cultures was quantified using a ^45Ca incorporation assay as previously described. Results from a representative of three experiments are shown, reported as the mean of quadruplicate determinations±SD, normalized to protein concentration (p<0.01 for RS vs. RS+ACA and RS+MC).
(A) M2 cells at confluence were pretreated for four hours with RPMI containing 1% FBS, followed by treatment with control vehicle or 5 μM 20S oxysterol for 1, 4, or 8 hours. Next total cell extracts were prepared and analyzed for levels of native or phosphorylated ERK (pERK) using specific antibodies as previously described.

M2 cells = test: Adipogenesis of M2 cells, oil Red O staining and adipocyte count; assay type: cell-based, mouse; details: 10 μM Tro, 10 μM oxysterols, alone or in combination, 10 days (FIG. 7)
Method: as §1
Test 1: M2 cells at 90% confluence were treated with vehicle (C), PPAR-γ activator, troglitazone 10 uM (Tro), alone or in combination with 10 μM oxysterols 20S-, 22R-, or 25S-hydroxycholesterol. After 8 days, adipocytes were identified by oil Red O staining and quantified by counting under a phase contrast microscope. FIG. 6A is a bar graph depicting the effect of oxysterols on reducing adipogenesis of MSC.
Test 2: (A) M2 cells at confluence were treated in RPMI containing 10% FBS with control vehicle or 10 μM troglitazone (Tro) in the absence or presence of 10 μM 20S or 22S oxysterols. After 10 days, adipocytes were visualized by oil Red O staining and quantified by light microscopy, shown in (B). Data from a representative of four experiments are shown, reported as the mean SD of quadruplicate determinations (p<0.001 for Tro vs. Tro+20S and Tro+22S). (C) M2 cells were treated at confluence with 10 μM Tro, alone or in combination with 10 μM 20S oxysterol. After 10 days, total RNA was isolated and analyzed for lipoprotein lipase (LPL), adipocyte P2 gene (aP2) or 18S rRNA expression by Northern blotting as described (Ref). Data from densitometric analysis of the Northern blot is shown in (D) as the average of duplicate samples, normalized to 18S rRNA.

lipoprotein lipase (LPL) = test: Northern blotting for lipoprotein lipase in M2 cells; assay type: cell-based, mouse; details: 10 μM Tro with 10 μM 20S, 10 days (FIGS. 7C and D)
Method: RNA isolation and Northern blot analysis - Following treatment of cells under appropriate experimental conditions, total RNA was isolated using the RNA isolation kit from Stratagene (La Jolla, Calif., U.S.A.). Total RNA ([…]) was run on a 1% agarose/formaldehyde gel and transferred to Duralon-UV membranes (Strategene, CA, U.S.A.) and cross-linked with UV light. The membranes were hybridized overnight at 60° C. with ^32P-labeled mouse osteocalcin cDNA probe, mouse lipoprotein lipase (LPL), mouse adipocyte protein 2 (aP2) PCR-generated probes, human 28S or 18S rRNA probes obtained from Geneka Biotechnology (Montreal, Quebec, Canada) and Maxim Biotech (San Francisco, CA, U.S.A.), respectively. […] The extent of gene induction was determined by densitometry.
Test 2: (A) M2 cells at confluence were treated in RPMI containing 10% FBS with control vehicle or 10 μM troglitazone (Tro) in the absence or presence of 10 μM 20S or 22S oxysterols. After 10 days, adipocytes were visualized by oil Red O staining and quantified by light microscopy, shown in (B). […] After 10 days, total RNA was isolated and analyzed for lipoprotein lipase (LPL), adipocyte P2 gene (aP2) or 18S rRNA expression by Northern blotting as described (Ref). […]

| SMILES | induction of mineralization, individual oxysterols [1] | adipogenesis induced by troglitazone (M2 cells) | expression of lipoprotein lipase (LPL) (lipoprotein lipase (LPL)) |
| --- | --- | --- | --- |
| CC(C)CCC[C@](C)(O)[C@H]1CC[C@H]2[C@@H]3CC=C4C[C@@H](O)CC[C@]4(C)[C@H]3CC[C@@]21C [20S, 20(S)-hydroxycholesterol] | unable to induce | inhibited adipogenesis | inhibition of the expression |
| CC(C)CC[C@@H](O)[C@@H](C)[C@H]1CC[C@H]2[C@@H]3CC=C4C[C@@H](O)CC[C@]4(C)[C@H]3CC[C@]12C [22R, 22(R)-hydroxycholesterol] | unable to induce | inhibited adipogenesis | – |
| CC(C)CC[C@H](O)[C@@H](C)[C@H]1CC[C@H]2[C@@H]3CC=C4C[C@@H](O)CC[C@]4(C)[C@H]3CC[C@]12C [22S, 22(S)-hydroxycholesterol] | unable to induce | inhibited adipogenesis | – |
